{"source": "patent US20240287463A1", "about": "“INDUCIBLE TISSUE CONSTRUCTS AND USES THEREOF” (Massachusetts Institute of Technology, priority 2020, published 2024)", "key": {"[1]": {"system": "iCasp9-GFP J2 population", "assay": "fibroblast removal from 2D micropatterned co-cultures (MPCC)", "format": "cell-based", "settings": "50 nM CID", "excerpt": "(§1) Specifically, MPCC were fabricated as described previously (S. R. Khetani and S. N. Bhatia (2005) Nat. Biotechnol 26, 120; S. March et al. (2015) Nat. Protoc. 10, 2007). Briefly, collagen was adsorbed in each well of a 96 well plate (glass bottom), and then patterned using an elastomeric polydimethysiloxane mold and oxygen plasma gas ablation. Human hepatocytes were thawed and seeded (70 k/well) on the collagen islands (500 μm with 1,200 μm center-to-center spacing). Adhered hepatocytes (˜10 k/well) were allowed to spread overnight before fibroblasts were seeded for co-culture (7 k/well). Supernatant was collected from cultures every other day and stored at −20° C. Human albumin was quantified using an enzyme-linked immunosorbent assay using a sheep anti-rat albumin antibody (ELISA) (Bethyl Laboratories) and 3,3′,5,5′-tetramethylbenzidine (TMB, Thermo Fisher). Urea concentration was measured using a colorimetric (diacetylmonoxime) assay with acid and heat (Stanbio Labs). CYP3A4 activity was assessed with the luminogenic P450-GloTM CYP450 assay kit (Promega) for nonlytic assays using cultured cells. Cultures were pre-treated with 2 μM rifampin or 1:1,000 DMSO vehicle control prepared in hepatocyte maintenance media for 72 hours (daily replenishment) where indicated. […]"}, "[2]": {"system": "unmodified J2s", "assay": "CID exposure of MPCCs plated with unmodified fibroblasts", "format": "cell-based", "settings": "data not shown", "excerpt": "as §1"}, "[3]": {"system": "iCasp9-GFP fibroblasts", "assay": "viability of hydrogel-encapsulated monoculture fibroblasts", "format": "cell-based"}, "[4]": {"system": "iCasp9-HDFs", "assay": "apoptosis of 2D monolayer fibroblasts (cellular ATP, cell density)", "format": "cell-based, human", "protocol": "To be able to remove fibroblasts on demand from the developing co-culture, the synthetically engineered, inducibly activated caspase-9 (iCasp9) outlined in the examples above was used. Using this inducible transgene, iCasp9-HDFs were established and characterized for effectiveness. iCasp9-HDFs were seeded on tissue culture plastic, and allowed to form a confluent monolayer before adding different concentrations of CID."}, "[5]": {"system": "iCasp9-HDFs", "assay": "live imaging of fibroblast removal in the 3D microfluidic co-culture device", "format": "cell-based, human", "settings": "10 nM CID after 7 days of co-culture", "protocol": "More specifically, the molds for the 2-channel microfluidic devices were constructed using stereolithography (Proto Labs). Polydimethylsiloxane (PDMS) was cured at a standard mixing ratio overnight at 60° C. in the mold, and individual devices were cut and plasma-bonded to glass slides. To enhance ECM bonding to PDMS, the surface inside the tissue chamber of the devices was functionalized with 0.01% poly-L-lysine and 1% glutaraldehyde following plasma-activation and washed overnight in DI water. On the day of seeding, devices were soaked in 70% ethanol (EtOH) and dried. Acupuncture needles (300 μm diameter) (Hwato) were blocked in 0.1% (w/v) bovine serum albumin (BSA) (Sigma) in phosphate buffer saline (PBS) for 45 minutes and inserted through the two needle guides. Devices with needles were UV-sterilized for 15 minutes. Once the needles were inserted, a fibrinogen solution containing human umbilical vein endothelial cells (HUVECs) and growth-arrested human dermal fibroblasts (HDFs) were added into the tissue chamber with thrombin. To prepare the cells for seeding, HDFs or iCasp-9 HDFs were growth-arrested with 10 μg/mL mitomycin in FGM-2 for 2.5 hours and thoroughly washed 5 times in FBM. Both HUVECs and HDFs were lifted from culture plates using TrypLE Express (Gibco), centrifuged at 200 g for 4 minutes, and resuspended to a concentration of 20 million cells/mL in EGM-2. […]"}, "[6]": {"system": "HUVECs", "assay": "vascular perfusion in tri-culture microfluidic devices", "format": "cell-based, human", "settings": "50 nM CID after 5 days of tri-culture", "excerpt": "Given that fibroblasts are only transiently required for supporting the formation of a functional vasculature, it was investigated whether CAMEO could be used in the vascularization of tissue constructs with organ-specific parenchymal cells without negatively affecting the function of the parenchymal cells. To investigate this, a tri-culture system of HUVECs, iCasp9-HDFs, and primary human hepatocytes was employed in the microfluidic device. Using the methods described in Example 5, a solution of HUVECs (3 million cells/mL), iCasp-9 HDFs (total of 6 million cells/mL), hepatic aggregates (0.36 million aggregates/mL with about 150 hepatocytes per aggregate), fibrinogen (2.5 mg/mL), thrombin (1 U/mL) was made in a 1:1 mixed media of EGM-2 and hepatocyte maintenance media. After 5 days of tri-culture, the devices were treated with 50 nM CID to remove the iCasp9-HDFs, or with vehicle control. All samples were fixed at day 7 to evaluate vascular perfusion (FIG. 8A). […] To evaluate whether the hepatocytes remained functional after CID treatment, levels of albumin and urea, markers for hepatic protein synthesis function and nitrogen metabolism, respectively, were measured in the media."}}, "data": [{"smiles": "CC[C@H](C(=O)N1CCCC[C@H]1C(=O)O[C@H](CCc1ccc(OC)c(OC)c1)c1cccc(OCC(=O)NCC(CNC(=O)COc2cccc([C@@H](CCc3ccc(OC)c(OC)c3)OC(=O)[C@@H]3CCCCN3C(=O)[C@@H](CC)c3cc(OC)c(OC)c(OC)c3)c2)CN(C)C)c1)c1cc(OC)c(OC)c(OC)c1", "note": "[CID, AP20187]", "values": [{"measurement": "removal of fibroblasts from MPCC", "setting": "[1]", "result": "selective removal of the iCasp9-GFP J2 population"}, {"measurement": "effect of CID exposure on unmodified J2s in MPCCs", "setting": "[2]", "result": "unaffected"}, {"measurement": "fibroblast viability", "setting": "[3]; hydrogel-encapsulated, after 6 hours of CID", "result": "undetectable"}, {"measurement": "fibroblast regrowth", "setting": "[3]; over the course of 21 days after CID", "result": "did not regrow"}, {"measurement": "time within which cellular ATP levels dropped precipitously", "setting": "[4]; 5 nM CID", "result": "2 to 4", "unit": "h"}, {"measurement": "reduction of iCasp9-HDFs in culture compared to vehicle control", "setting": "[4]; 10 nM CID, overnight", "result": "~96", "unit": "%"}, {"measurement": "rapidity of ATP loss", "setting": "[4]; 5, 50, 500 nM CID", "result": "increased with increasing CID concentration"}, {"measurement": "time by which most of the fibroblast population was removed", "setting": "[5]", "result": "≤ 10", "unit": "h"}, {"measurement": "time to rapid rounding of iCasp9-HDFs", "setting": "[5]", "result": "≤ 5", "unit": "h"}, {"measurement": "vascular perfusion at day 7", "setting": "[6]", "result": "formed perfusable vasculature"}]}]}
